From US20050101595A1, “N-containing cycloalkyl-substituted amino-thiazole derivatives and pharmaceutical compositions for inhibiting cell proliferation and methods for their use” (PFIZER INC., priority 2003, published 2005) come the findings set out here.

Where a name gives a salt, the structure may show the parent alone. Read-outs that look alike come from different tables or passages of the source.

In one assay the test system is HCT-116 cell line. Description: Inhibition of cell growth, tetrazolium salt (MTT) assay. Format: cell-based. The following applies: for HCT-116 % Inhibition at 0.25 μM: 0.25 μM compound; for IC50: Homo sapiens, HCT-116, 120 h, MTT, three to five days, read-out: HCT-116 IC50. A digest of the protocol: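 MTT colorimetric viability: three-to-five-day compound exposure in 0.5% (v/v) DMSO at 37° C, MTT 0.2 mg/mL for the last 4 h, A540 compared with vehicle-treated cells.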

A further assay has as its target CDK2/Cyclin A (Homo sapiens, UniProt P24941). Description: Inhibition of CDK2/Cyclin A Retinoblastoma Kinase Activity. Format: biochemical. To be noted: for CDK2 % Inhibition At 0.03 μM: Table 2; for Ki: apparent Ki, CDK2/proteolyzed cyclin A, Rb fragment substrate, 25 μM ATP. A digest of the protocol:
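CDK2 (10 or 19 nM), insect-cell expressed, gel-filtration purified with truncated cyclin A; Rb fragment substrate; 25 μM ATP; 10 mM HEPES pH 7.4, 10 mM MgCl2; 30° C, 60 or 75 min; EDTA stop; phosphocellulose/nitrocellulose capture, phosphorimager. % inhibition vs DMSO control, no-enzyme background subtracted.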

Assay [1] concerns the target human CDK4 and genetically truncated (1-264) cyclin D3 (Homo sapiens, UniProt P11802). Description: Inhibition of CDK4/Cyclin D Retinoblastoma Kinase Activity. The assay is classed as biochemical. To be noted: for Ki: apparent Ki, CDK4/truncated cyclin D3, Rb fragment substrate, 25 μM ATP. The method in brief: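 The enzyme complex (5 nM), expressed in co-infected insect cells, was incubated with recombinant Rb fragment, 25 μM radiolabelled ATP and 2% DMSO at 30 °C. Reactions were stopped with EDTA after 20 minutes, or 60 minutes for tight-binding inhibitors. Apparent Ki values came from competitive inhibition fits.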

[2] abbreviates: 0.1 μM compound, HCT-116, Table 4.

Chain of human CDK4 and genetically truncated (1-264) cyclin D3 (P11802 whole entry, the tested form may be a part): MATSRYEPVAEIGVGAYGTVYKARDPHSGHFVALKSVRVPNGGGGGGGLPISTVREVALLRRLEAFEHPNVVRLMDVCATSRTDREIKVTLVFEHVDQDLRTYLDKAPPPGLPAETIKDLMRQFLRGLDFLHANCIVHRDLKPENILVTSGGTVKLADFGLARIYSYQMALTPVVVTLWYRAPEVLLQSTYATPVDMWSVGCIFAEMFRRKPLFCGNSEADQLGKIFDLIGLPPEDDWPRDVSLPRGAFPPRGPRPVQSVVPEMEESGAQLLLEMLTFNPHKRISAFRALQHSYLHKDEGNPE
Chain of human CDK4 and genetically truncated (1-264) cyclin D3 (P30281 1-264 partner): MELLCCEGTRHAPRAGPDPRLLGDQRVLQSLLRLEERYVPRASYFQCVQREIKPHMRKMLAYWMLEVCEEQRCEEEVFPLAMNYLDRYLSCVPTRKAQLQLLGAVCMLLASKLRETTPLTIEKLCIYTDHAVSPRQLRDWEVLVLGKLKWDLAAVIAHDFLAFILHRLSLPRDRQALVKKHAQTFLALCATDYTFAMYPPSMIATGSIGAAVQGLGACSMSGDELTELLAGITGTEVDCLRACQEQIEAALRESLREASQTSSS

Consider `Cc1cc(C)c2c(c1C(=O)N1CCC(Nc3nc(N)c(C(=O)c4c(F)cccc4F)s3)CC1)CC(C)(C)C2=O` [Example R29], for which the “HCT-116 % Inhibition at 0.1 μM” value in the assay with HCT-116 cell line (HCT-116 cells, at 0.1 μM) is 0%. Further, in the assay on HCT-116 cell line (HCT-116 cells), the “HCT-116 5 Inhibition at 0.25 μM” value is given as 36. The “CDK2 % Inhibition at 0.03 μM” value at CDK2/Cyclin A (at 0.03 μM) came out at 2%. The “CDK4 % Inhibition at 0.03 μM” value in assay [1] (at 0.03 μM) is 23%.
As for `CC(C)c1ccccc1NC(=O)N1CCC(Nc2nc(N)c(C(=O)c3c(F)cccc3F)s2)CC1` [Example O40], the “HCT-116 % Inhibition at 0.25 μM” value in the assay with HCT-116 cell line (HCT-116, Table 2) is recorded as 3%. Moreover, on CDK2/Cyclin A (0.03 μM compound), the “CDK2 % Inhibition At 0.03 μM” value is 30%. The “CDK4 % Inhibition at 0.03 μM” value in assay [1] (0.03 μM compound, Table 2) turned out to be 6%.
`CC(=O)c1cccc(NC(=O)N2CCC(Nc3nc(N)c(C(=O)c4c(F)cccc4F)s3)CC2)c1` [Example O47]: in the assay with HCT-116 cell line (HCT-116, Table 2), the “HCT-116 % Inhibition at 0.25 μM” value was 35%. The “CDK2 % Inhibition At 0.03 μM” value on CDK2/Cyclin A (0.03 μM compound) stood at 35%. Besides, the “CDK4 % Inhibition at 0.03 μM” value in assay [1] (0.03 μM compound, Table 2) is 14%.
For the molecule `Nc1nc(NC2CCN(C(=O)C3CC3)CC2)sc1C(=O)c1c(F)cccc1F` [Example Q54], the “HCT-116 % Inhibition at 0.1 μM” value in the assay with HCT-116 cell line (setting [2]) is 0%. Moreover, the “HCT-116 % Inhibition at 0.25 μM” value with HCT-116 cell line (HCT-116, Table 4) is 35%. The “CDK2 % Inhibition at 0.03 μM” value at CDK2/Cyclin A (0.03 μM compound, Table 4) is recorded as −2%. In addition, the “CDK4 % Inhibition at 0.03 μM” value in assay [1] (0.03 μM compound, Table 4) is reported as 18%.
Consider `Cc1cc(C)cc(C(=O)N2CCC(Nc3nc(N)c(C(=O)c4c(F)cccc4F)s3)CC2)c1` [Example D14, {4-Amino-2-[1-(3,5-dimethyl-benzoyl)-piperidin-4-ylamino]-thiazol-5-yl}-(2,6-difluoro-phenyl)-methanone], for which the IC50 (as a rule, the concentration that inhibits the measured activity by half) with HCT-116 cell line (first HCT-116 column (c4)) is 14 nM; in the assay with HCT-116 cell line (second HCT-116 column (c5)), 41 nM. In addition, the Ki on CDK2/Cyclin A is 120 nM; in assay [1] it was 19 nM.
`COc1ccc(OC)c(C(=O)N2CCC(Nc3nc(N)c(C(=O)c4c(F)cccc4F)s3)CC2)c1` [Example R117]: in the assay with HCT-116 cell line (HCT-116 cells, at 0.1 μM), the “HCT-116 % Inhibition at 0.1 μM” value amounted to 7%. For the same molecule, the “HCT-116 5 Inhibition at 0.25 μM” value with HCT-116 cell line (HCT-116 cells) is 45. In addition, on CDK2/Cyclin A (at 0.03 μM), the “CDK2 % Inhibition at 0.03 μM” value was 53%. Further, the “CDK4 % Inhibition at 0.03 μM” value in assay [1] (at 0.03 μM) is 66%.
Take `Nc1nc(NC2CCN(C(=O)Oc3ccc(Cl)cc3)CC2)sc1C(=O)c1c(F)cccc1F` [Example Q5]: the “HCT-116 % Inhibition at 0.1 μM” value in the assay with HCT-116 cell line (setting [2]) came to 0.81%. The “HCT-116 % Inhibition at 0.25 μM” value with HCT-116 cell line (HCT-116, Table 4) is given as 36%. On CDK2/Cyclin A (0.03 μM compound, Table 4), the “CDK2 % Inhibition at 0.03 μM” value is on record as 45%. The “CDK4 % Inhibition at 0.03 μM” value in assay [1] (0.03 μM compound, Table 4) was 81%.
As to `Nc1nc(NC2CCN(S(=O)(=O)c3ccc(S)nc3)CC2)sc1C(=O)c1c(F)cccc1F` [Example L4, 1-{4-Amino-2-[1-(6-mercapto-pyridine-3-sulfonyl)-piperidin-4-ylamino]-thiazol-5-yl}-1-(2,6-difluoro-phenyl)-methanone Hydrochloride.], the IC50 in the assay with HCT-116 cell line (first HCT-116 column (c4)) and with HCT-116 cell line (second HCT-116 column (c5)) was over 500 nM in each case. The Ki stood at 0.3 nM at CDK2/Cyclin A and 1.8 nM in assay [1].
`Nc1nc(NC2CCN(C(=O)c3ccc4c(c3)C(=O)c3ccccc3C4=O)CC2)sc1C(=O)c1c(F)cccc1F` [Example R34]: in the assay with HCT-116 cell line (HCT-116 cells, at 0.1 μM), the “HCT-116 % Inhibition at 0.1 μM” value amounted to 0%. The “HCT-116 5 Inhibition at 0.25 μM” value in the assay on HCT-116 cell line (HCT-116 cells) came to 55. Further, the “CDK2 % Inhibition at 0.03 μM” value on CDK2/Cyclin A (at 0.03 μM) was 35%. Besides, in assay [1] (at 0.03 μM), the “CDK4 % Inhibition at 0.03 μM” value came out at 60%.
On to `Nc1nc(NC2CCN(S(=O)(=O)c3ccc(S(=O)(=O)c4ccccc4)s3)CC2)sc1C(=O)c1c(F)cccc1F` [Example P42], for which, in the assay on HCT-116 cell line (0.1 μM compound, HCT-116, Table 3), the “HCT-116 % Inhibition at 0.1 μM” value is given as 3%. In the assay with HCT-116 cell line (HCT-116, Table 3), the “HCT-116 % Inhibition at 0.25 μM” value is reported as 19%. At CDK2/Cyclin A (0.03 μM compound, Table 3), the “CDK2 % Inhibition at 0.03 μM” value is 55%. Moreover, the “CDK4 % Inhibition at 0.03 μM” value in assay [1] (0.03 μM compound, Table 3) was found to be 62%.
`Nc1nc(NC2CCN(C(=O)C(=O)c3c[nH]c4ccccc34)CC2)sc1C(=O)c1c(F)cccc1F` [Example R5]: in the assay on HCT-116 cell line (HCT-116 cells, at 0.1 μM), the “HCT-116 % Inhibition at 0.1 μM” value worked out at 13%. In addition, the “HCT-116 5 Inhibition at 0.25 μM” value in the assay on HCT-116 cell line (HCT-116 cells) amounted to 49. Moreover, the “CDK2 % Inhibition at 0.03 μM” value on CDK2/Cyclin A (at 0.03 μM) is reported as −31%. Further, the “CDK4 % Inhibition at 0.03 μM” value in assay [1] (at 0.03 μM) is listed as 9%.
`Cc1nn(C)c2ccc(C(=O)N3CCC(Nc4nc(N)c(C(=O)c5c(F)cccc5F)s4)CC3)c(Cl)c12` [Example R48]: the “HCT-116 % Inhibition at 0.1 μM” value with HCT-116 cell line (HCT-116 cells, at 0.1 μM) came out at 0%. For the same molecule, the “HCT-116 5 Inhibition at 0.25 μM” value with HCT-116 cell line (HCT-116 cells) came to 50. For the same molecule, the “CDK2 % Inhibition at 0.03 μM” value on CDK2/Cyclin A (at 0.03 μM) worked out at 16%. For the same molecule, the “CDK4 % Inhibition at 0.03 μM” value in assay [1] (at 0.03 μM) worked out at 32%.
